Structures can show the parent of a compound that is named as a salt.

We go through 29 compounds from ChEMBL document CHEMBL1126894 (J Med Chem, 1993).

Assay [1] has as its target T1, 5-hydroxytryptamine receptor 1A (Rattus norvegicus, UniProt P19327).
T1 sequence (P19327 whole entry): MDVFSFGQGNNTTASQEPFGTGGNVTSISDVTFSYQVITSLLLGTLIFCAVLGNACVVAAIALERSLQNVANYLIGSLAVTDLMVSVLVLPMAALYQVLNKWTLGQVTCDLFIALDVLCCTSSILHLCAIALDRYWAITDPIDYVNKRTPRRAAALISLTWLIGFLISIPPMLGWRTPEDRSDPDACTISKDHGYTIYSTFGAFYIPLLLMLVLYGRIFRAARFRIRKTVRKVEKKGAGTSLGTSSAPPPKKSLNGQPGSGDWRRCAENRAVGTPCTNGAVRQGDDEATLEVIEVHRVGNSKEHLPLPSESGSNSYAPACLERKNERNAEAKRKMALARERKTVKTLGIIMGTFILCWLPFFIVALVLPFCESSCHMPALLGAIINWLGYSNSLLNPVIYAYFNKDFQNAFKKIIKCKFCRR
Description: Binding affinity by measuring displacement of [3H]-8-OH-DPAT from 5-hydroxytryptamine 1A receptor in rat hippocampus. The assay is classed as tissue-based.

In assay [2] the test system is Mus musculus. Description: Ability to reverse scopolamine-induced amnesia in a passive avoidance test to assess memory impairment administered perorally 10 mg/kg. To be noted: route oral. The assay is classed as functional.
Assay [3] deals with Mus musculus. Nature of the assay: Ability to reverse scopolamine-induced amnesia in a passive avoidance test to assess memory impairment administered perorally 3 mg/kg. Type of assay: functional. The following applies: route oral.
For assay [4], the system named is Mus musculus. Nature of the assay: Ability to reverse scopolamine-induced amnesia in a passive avoidance test to assess memory impairment administered perorally 30 mg/kg. The following applies: route oral. Type of assay: functional.
Assay [5] relates to Rattus norvegicus. Nature of the assay: Anticonflict activity on water lick conflict test in rats by measuring no. of shocks in 5 min. administered perorally at 30 mg/kg. The assay is classed as functional. The following applies: route oral.
Assay [6] relates to Rattus norvegicus. Description: Anticonflict activity on water lick conflict test in rats is no of shocks in 5 min. administered perorally 1 mg/kg (no. of rats). Type of assay: functional. The following applies: route oral.
Assay [7] concerns Rattus norvegicus. Nature of the assay: Anticonflict activity on water lick conflict test in rats by measuring no. of shocks in 5 min. administered perorally at 3 mg/kg. The assay is classed as functional. The following applies: route oral.
In assay [8] the target is T1, 5-hydroxytryptamine receptor 1A. Description: Inhibitory concentration against 5-hydroxytryptamine 1A receptor.
For assay [9] the target is unchanged. Description: Binding affinity for 5-hydroxytryptamine 1A receptor by use of [3H]8-OH-DPAT in male rat.
Assay [10] has as its system Mus musculus. Description: Ability to reverse scopolamine-induced amnesia in a passive avoidance test to assess memory impairment administered perorally 1 mg/kg. Type of assay: functional. The following applies: route oral.
Assay [11] deals with Mus musculus. Nature of the assay: Ability to reverse scopolamine-induced amnesia in a passive avoidance test to assess memory impairment administered perorally at 30 mg/kg. The assay is classed as functional. The following applies: route oral.
In assay [12] the test system is Rattus norvegicus. Description: Anticonflict activity on water lick conflict test in rats by measuring no. of shocks in 5 min. administered perorally at 1 mg/kg. The assay is classed as functional. To be noted: route oral.
Assay [13] has as its system Rattus norvegicus. Nature of the assay: Anticonflict activity on water lick conflict test in rats by measuring no. of shocks in 5 min. administered perorally at 10 mg/kg. Type of assay: functional. The following applies: route oral.
Assay [14] relates to Rattus norvegicus. Nature of the assay: Anticonflict activity on water lick conflict test in rats is no. of shocks in 5 min; administered perorally 10 mg/kg (no. of rats). Type of assay: functional. The following applies: route oral.
In assay [15] the test system is Mus musculus. Nature of the assay: Ability to reverse scopolamine-induced amnesia in a passive avoidance test to assess memory impairment; administered perorally 5 mg/kg (no. of mice). The assay is classed as functional. The following applies: route oral.
Assay [16] relates to Mus musculus. Description: Ability to reverse scopolamine-induced amnesia in a passive avoidance test to assess memory impairment administered perorally 1 mg/kg (no. of mice). The assay is classed as functional. To be noted: route oral.
The target of a further assay is D(2) dopamine receptor (Homo sapiens, UniProt P14416). Nature of the assay: Binding affinity for DA2 receptor.
D(2) dopamine receptor, sequence (P14416 whole entry): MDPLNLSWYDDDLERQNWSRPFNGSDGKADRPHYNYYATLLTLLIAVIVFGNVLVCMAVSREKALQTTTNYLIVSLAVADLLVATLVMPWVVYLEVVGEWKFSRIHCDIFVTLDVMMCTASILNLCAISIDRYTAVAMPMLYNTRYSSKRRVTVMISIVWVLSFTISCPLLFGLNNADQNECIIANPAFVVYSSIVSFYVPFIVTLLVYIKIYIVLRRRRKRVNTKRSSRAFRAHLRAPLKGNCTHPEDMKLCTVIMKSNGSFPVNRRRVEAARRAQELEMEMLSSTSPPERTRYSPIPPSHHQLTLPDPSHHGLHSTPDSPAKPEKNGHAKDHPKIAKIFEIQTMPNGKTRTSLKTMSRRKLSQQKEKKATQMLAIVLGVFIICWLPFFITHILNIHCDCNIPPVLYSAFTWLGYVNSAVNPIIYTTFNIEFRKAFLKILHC

With `O=C(OC1CCCCCC1)[C@H]1Cc2c(sc3ccccc23)CN1`, in assay [1], the IC50 was 55.2 nM.
In assay [1], `O=C(NC1CCCC1)[C@H]1Cc2c(sc3ccccc23)CN1` yielded an IC50 of 111 nM.
In the case of `O=C(NC1CCCCC1)[C@H]1Cc2c(sc3ccccc23)CN1`, in assay [1], the IC50 was 27.2 nM.
Take `CCC(CC)NC(=O)[C@H]1Cc2c(sc3ccccc23)CN1`: the IC50 in assay [1] stood at 126 nM.
In assay [1], `Cl.O=C(NC1CCCCC1O)[C@H]1Cc2c(sc3ccccc23)CN1` (stereo partly drawn) showed an IC50 of 148 nM. The “Latency to step through” value in the assay on Mus musculus [2] worked out at 41.6 s; in the assay on Mus musculus [3] it was 68.2 s; with Mus musculus [4] it was 50.8 s. In addition, the No. of shocks in the assay with Rattus norvegicus [5] worked out at 26.1; with Rattus norvegicus [6], 21.6; with Rattus norvegicus [7] it was 34.9.
`CCCCCCNC(=O)[C@H]1Cc2c(sc3ccccc23)CN1` displayed an IC50 in [1] of 91.2 nM.
Compound `O=C(NCC1CCCCC1)[C@H]1Cc2c(sc3ccccc23)CN1` displayed an IC50 in assay [1] of 20.2 nM.
Take `O=C(OC1CCCCC1)[C@H]1Cc2c(sc3ccccc23)CN1`: the IC50 in [1] turned out to be 50.4 nM.
On to `O=C(Nc1ccccc1)[C@H]1Cc2c(sc3ccccc23)CN1`, for which, in assay [1], the IC50 is 272 nM.
`O=C(NC1CCCCCC1)[C@H]1Cc2c(sc3ccccc23)CN1` had an IC50 in [1] of 28.4 nM.
Regarding `CCCCCCCNC(=O)[C@H]1Cc2c(sc3ccccc23)CN1`, the IC50 in assay [8] is 126 nM.
Consider `O=C(NC1CCC1)[C@H]1Cc2c(sc3ccccc23)CN1`, for which the IC50 in [1] was 232 nM.
In turn, `Cl.O=C(NCc1ccc2c(c1)OCO2)[C@H]1Cc2c(sc3ccccc23)CN1` had an IC50 in assay [1] of 53.1 nM. Besides, the Ki in assay [9] amounted to 53.1 nM. Further, the “Latency to step through” value in the assay on Mus musculus [10] was determined as 94.6 s; in the assay on Mus musculus [3] it was 89 s; with Mus musculus [11], 104.7 s. Besides, the No. of shocks in the assay on Rattus norvegicus [12] worked out at 22.1; in the assay on Rattus norvegicus [13] it was 28.3; with Rattus norvegicus [7], 22.9.
`O=C(NC1CCCCCCC1)[C@H]1Cc2c(sc3ccccc23)CN1` came in with an IC50 in assay [1] of 22.9 nM.
Still for that read-out and setting: the value for `O=C(NC12CC3CC(CC(C3)C1)C2)[C@H]1Cc2c(sc3ccccc23)CN1` was 61.6 nM.
With `CC(C)(C)C1CCC(NC(=O)[C@H]2Cc3c(sc4ccccc34)CN2)CC1` (stereo partly drawn), in [1], the IC50 amounted to 52.7 nM.
For `CC1CCC(NC(=O)[C@H]2Cc3c(sc4ccccc34)CN2)CC1` (stereo partly drawn), the IC50 in assay [1] turned out to be 32.4 nM.
As to `CC1CCCCC1NC(=O)[C@H]1Cc2c(sc3ccccc23)CN1` (stereo partly drawn), the IC50 in assay [1] came out at 28 nM.
`O=C(OC1CCCC1)[C@H]1Cc2c(sc3ccccc23)CN1`: in assay [1], the IC50 was 121 nM.
The same measure, in the same setting: the value for `Cc1ccc(CNC(=O)[C@H]2Cc3c(sc4ccccc34)CN2)cc1` was 133 nM.
In assay [1], `C[C@H](NC(=O)[C@H]1Cc2c(sc3ccccc23)CN1)c1ccccc1` registered an IC50 of 58.4 nM.
The same measure, in the same setting: the value for `O=C(NN1CCCCC1)[C@H]1Cc2c(sc3ccccc23)CN1` was 211 nM.
Same read-out and setting: in the case of `O=C(OC1CCCCCCC1)[C@H]1Cc2c(sc3ccccc23)CN1` it was 67.3 nM; in that of `O=C(NC1CCCCC1)[C@@H]1Cc2c(sc3ccccc23)CN1`, > 5000 nM.
In assay [1], `O=C(NC1CC2CCC1C2)[C@H]1Cc2c(sc3ccccc23)CN1` (stereo partly drawn) showed an IC50 of 66.4 nM.
For `O=C(NCc1ccc2c(c1)OCO2)C1Cc2c(sc3ccccc23)CN1` (single isomer, unassigned), the IC50 in [1] was > 5000 nM.
With `CN1C(=O)CN=C(c2ccccc2)c2cc(Cl)ccc21` [DIAZEPAM], the No. of shocks in the assay on Rattus norvegicus [14] worked out at 25.6. The “Latency to step through” value with Mus musculus [15] is 10.6 s.
Regarding `CN1[C@@H]2C[C@@H](OC(=O)[C@H](CO)c3ccccc3)C[C@H]1[C@@H]1O[C@@H]12` [SCOPOLAMINE], the “Latency to step through” value in the assay with Mus musculus [16] was determined as 16 s.
For `O=C1[C@@H]2[C@H]3CC[C@H](C3)[C@@H]2C(=O)N1CCCCN1CCN(c2ncccn2)CC1` [TANDOSPIRONE HYDROCHLORIDE], at D(2) dopamine receptor, the Ki stood at 28 nM.
